These results are taken from US10683278B2 (JINAN UNIVERSITY, priority 2015, dated 2020).

As a reminder, the inhibition is the drop in the measured response relative to a control, in per cent. As usually defined, the IC50 is the concentration at which inhibition is half-maximal. The low end stands for higher potency, the high end for lower potency.

The target in assay [1] is T1, FLT-3 kinase domain recombinant protein (Homo sapiens, UniProt P36888).
T1 construct: 50 μL FLT-3 kinase domain recombinant protein diluted with reaction buffer to initiate the reaction
T1 sequence (P36888 610-943 limits assumed): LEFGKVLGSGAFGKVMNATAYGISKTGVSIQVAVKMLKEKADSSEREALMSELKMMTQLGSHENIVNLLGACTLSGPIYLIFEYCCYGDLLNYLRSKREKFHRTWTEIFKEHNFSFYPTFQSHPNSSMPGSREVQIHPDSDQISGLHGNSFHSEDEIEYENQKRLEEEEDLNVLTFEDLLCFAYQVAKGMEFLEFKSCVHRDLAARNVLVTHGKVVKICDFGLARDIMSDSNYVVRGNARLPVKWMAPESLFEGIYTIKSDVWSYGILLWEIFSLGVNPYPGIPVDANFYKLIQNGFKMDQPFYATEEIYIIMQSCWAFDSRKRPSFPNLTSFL
The experiment in a line: Inhibition rate on FLT3 kinase (ELISA). The conditions noted are these: two values per compound; for inhibition at 0.01 µM / inhibition at 0.1 µM / inhibition at 1 µM: read-out: Inhibition rate (%) against receptor tyrosine kinase FLT-3. It counts as biochemical. An outline of the steps:
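Recombinant FLT-3 kinase domain phosphorylated coated Poly(Glu,Tyr) 4:1 with ATP in HEPES pH 7.4 buffer with MgCl2, MnCl2, Na3VO4, DTT, 1 h at 37 °C; 1% DMSO final. Phosphotyrosine detected with PY99 and HRP anti-mouse antibody, OPD development, absorbance at 490 nm.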
(In an ELISA, binding on a coated surface is turned into a signal by an enzyme label.)

Assay [2] deals with MV4-11 cells. The experiment in a line: Inhibition of proliferation of MV4-11 cells (CCK-8). It is filed as cell-based. To be noted: Homo sapiens, 72 h, mean±standard deviation of two independent tests. How it is done:
(§1) 12000 g of compounds were centrifuged for 5 min, DMSO was added to make a 10^−2M stock solution, vortexed uniformly and sonicated for 10 min for standby application, and stored at −40° C. The compounds were diluted from the stock solution with saline to 10 times the concentration to be tested (concentration of DMSO in the system being no more than 0.5%) during the test.
(§2) The inhibitory effect of the compounds on the proliferation of MV4-11 cells was detected using a CCK-8 cell counting kit (Dojindo). The specific steps are as follows: the MV4-11 cells in logarithmic growth phase were seeded into a 96-well culture plate at a suitable density in 90 μL/well, cultured overnight, compounds at different concentrations were then added and acted on cells for 72 hr, and the solvent control group (negative control) was set up. The effect of the compounds on cell proliferation was detected using a CCK-8 cell counting kit (Dojindo) after the compounds had acted on the cells for 72 h. 10 μL of CCK-8 reagent was added to each well, same was placed in an incubator at 37° C. for 2-4 hours, and the reading from the full-wavelength microwell plate ELIASA SpectraMax 190 was performed with a wavelength of 450 nm.
(§3) IC50 value was calculated using a software included with ELIASA by the four-parameter regression.
(§4) IC50 for the inhibition of the compounds on each stain of cells was derived from two independent repeated tests, and the results are shown as the mean±standard deviation.

Assay [3] has as its system Molm-13 cells. Kind of assay: Inhibition of proliferation of Molm-13 cells (CCK-8). It counts as cell-based. The conditions noted are these: Homo sapiens, 72 h, mean±standard deviation of two independent tests. How it is done: [Worded in the source for another cell line; this cell line is reported under the same test.] as §1, §2, §3, §4

As to `CCc1ccc2c(c1)c(=O)c(C(=O)Nc1ccc(Oc3ncnc4cc(OCCCN5CCOCC5)c(OC)cc34)c(F)c1)c(C)n2C` [GDL5000123, 6-ethyl-N-(3-fluoro-4-((6-methoxy-7-(3-morpholinopropoxy)quinazolin-4-yl)oxy)phenyl)-1,2-dimethyl-4-oxo-1,4-dihydroquinoline-3-carboxamide], the “Inhibition rate (%) against receptor tyrosine kinase FLT-3” value (shortened to “Inhibition rate (%)”) in assay [1] (compound 10 nM, 0.01 µM) is 74.8%; in assay [1] (compound 100 nM, 0.1 µM) it was 83.8%; in assay [1] (compound 1000 nM, 1 µM), 97.4%. For the same compound, the inhibition at 0.01 µM in assay [1] (compound 10 nM) is 75.4%. Also, in assay [1] (compound 100 nM), the inhibition at 0.1 µM came out at 89.3%. Moreover, the inhibition at 1 µM in assay [1] (compound 1000 nM) was 104%. Moreover, the half-maximal inhibitory concentration (IC50) stood at 51.7 ± 17.6 nM in assay [2] and 3.5 ± 3.2 nM in assay [3].
Take `CCc1ccc2c(c1)c(=O)c(C(=O)Nc1ccc(Oc3ncnc4cc(OCCN(C)C)c(OC)cc34)c(F)c1)c(C)n2C` [GDL5000128, N-(4-(7-(2-(dimethylamino)ethoxy)-6-methoxyquinazolin-4-yloxy)-3-fluorophenyl)-6-ethyl-1,2-dimethyl-4-oxo-1,4-dihydroquinoline-3-carboxamide]: the “Inhibition rate (%)” value in assay [1] (compound 10 nM, 0.01 µM) is given as 71.7%; in assay [1] (compound 100 nM, 0.1 µM), 79.5%. Also, the inhibition at 0.01 µM in assay [1] (compound 10 nM) was determined as 59.1%. Besides, the inhibition at 0.1 µM in assay [1] (compound 100 nM) was determined as 75.4%. For the same compound, the inhibition at 1 µM in assay [1] (compound 1000 nM) is 87.9%. Moreover, the IC50 in assay [2] is 57.3 ± 10.4 nM; in assay [3] it was 50.2 ± 9.9 nM.
On to `CCc1ccc2c(c1)c(=O)c(C(=O)Nc1ccc(Oc3ncnc4cc(OCCCN5CCN(C)CC5)c(OC)cc34)c(F)c1)c(C)n2C` [GDL5000138, 6-ethyl-N-(3-fluoro-4-(6-methoxy-7-(3-(4-methylpiperazin-1-yl)propoxy)quinazolin-4-yloxy)phenyl)-1,2-dimethyl-4-oxo-1,4-dihydroquinoline-3-carboxamide], for which the “Inhibition rate (%)” value came out at 66.4% in assay [1] (compound 10 nM, 0.01 µM); 83.0% in assay [1] (compound 100 nM, 0.1 µM); 98.1% in assay [1] (compound 1000 nM, 1 µM). Also, in assay [1] (compound 10 nM), the inhibition at 0.01 µM was 67.7%. The inhibition at 0.1 µM in assay [1] (compound 100 nM) was 81.5%. Also, the inhibition at 1 µM in assay [1] (compound 1000 nM) came out at 98%. In addition, the IC50 in assay [2] is below 2 nM; in assay [3] it was 3.9 ± 2.9 nM.
As to `CCc1ccc2c(c1)c(=O)c(C(=O)Nc1ccc(Oc3ncnc4[nH]cc(-c5ccccc5)c34)c(F)c1)c(C)n2C` [TL4800075, 6-ethyl-N-(3-fluoro-4-((5-phenyl-7H-pyrrolo[2,3-d]pyrimidin-4-yl)oxy)phenyl)-1,2-dimethyl-4-oxo-1,4-dihydroquinoline-3-carboxamide], the “Inhibition rate (%)” value is 41.9% in assay [1] (compound 10 nM, 0.01 µM); 70.4% in assay [1] (compound 100 nM, 0.1 µM); 80.7% in assay [1] (compound 1000 nM, 1 µM). For the same compound, the inhibition at 0.01 µM in assay [1] (compound 10 nM) came out at 48.7%. For the same compound, the inhibition at 0.1 µM in assay [1] (compound 100 nM) worked out at 76.3%. Further, the inhibition at 1 µM in assay [1] (compound 1000 nM) is 86.6%.
For the compound `CCc1ccc2c(c1)c(=O)c(C(=O)Nc1ccc(Oc3ncnc4cc(OC)c(OC)cc34)c(F)c1)c(C)n2C` [TL4800191, N-(4-(6,7-dimethoxyquinazolin-4-yloxy)-3-fluorophenyl)-6-ethyl-1,2-dimethyl-4-oxo-1,4-dihydroquinoline-3-carboxamide], the “Inhibition rate (%)” value is reported as 67.0% in assay [1] (compound 10 nM, 0.01 µM); 77.1% in assay [1] (compound 100 nM, 0.1 µM); 83.2% in assay [1] (compound 1000 nM, 1 µM). Besides, the inhibition at 0.01 µM in assay [1] (compound 10 nM) is 70.7%. Further, the inhibition at 0.1 µM in assay [1] (compound 100 nM) was determined as 86.4%. In addition, the inhibition at 1 µM in assay [1] (compound 1000 nM) came out at 84.7%. Moreover, the 50% inhibitory concentration (IC50) in assay [2] turned out to be 194 ± 104 nM; in assay [3] it was 102 ± 10.9 nM.
Turning to `COc1cc2ncnc(Oc3ccc(NC(=O)c4cn5c6c(c(N7CCC(O)CC7)c(F)cc6c4=O)CCC5C)cc3F)c2cc1OC` (stereo not drawn) [TL4830031, N-(4-((6,7-dimethoxyquinazolin-4-yl)oxy)-3-fluorophenyl)-9-fluoro-8-(4-hydroxypiperidin-1-yl)-5-methyl-1-oxo-1,5,6,7-tetrahydropyrido[3,2,1-ij]quinoline-2-carboxamide], the “Inhibition rate (%)” value is 57.9% in assay [1] (compound 10 nM, 0.01 µM); 65.8% in assay [1] (compound 100 nM, 0.1 µM); 76.4% in assay [1] (compound 1000 nM, 1 µM). Moreover, in assay [1] (compound 10 nM), the inhibition at 0.01 µM stood at 56.8%. Also, the inhibition at 0.1 µM in assay [1] (compound 100 nM) was 71.4%. Moreover, the inhibition at 1 µM in assay [1] (compound 1000 nM) came to 79.5%. The IC50 in assay [2] was above 500 nM; in assay [3] it was 239 ± 21.9 nM.
